According to patent US20220339178A1, “COMPOSITIONS AND METHODS FOR COGNITIVE PROTECTION OF POLLINATORS AGAINST PESTICIDES” (priority 2019, published 2022):

How the values were obtained:
[1] = tested on: Honey bee foragers (Apis mellifera scutellata); experiment: Sucrose responsiveness (sensory sensitivity) of honey bees: flavonoids vs deltamethrin; format: in vivo; conditions: for sensitivity (sucrose responsiveness, total PER score) relative to Control bees: honey bees, rutin 1 μM, kaempferol 131.7 μM or both for one day, 17.81 μM deltamethrin next day, pooled score
Method: (§1) Honey bee foragers (Apis mellifera scutellata) were captured from established hives at the Apiary of the Universidad del Rosario (Bogota, Colombia) between 08:00 h and 10:00 h. Bees were ice-anesthetized and harnessed in plastic tubes and maintained under laboratory conditions for the duration of the experiment (three days).
On the first day, bees were randomly allocated to one of four treatments administered as two doses (morning: 20 μL; afternoon:10 μL): i) Control (1M sucrose solution), ii) Rutin 1 μM (Sigma-Aldrich R5143), iii) Kaempferol 131.7 μM (Sigma-Aldrich K0133), iv) Rutin-Kaempferol composition (final concentration of […] rutin and 131.7 μM kaempferol). All solutions were diluted in 1M sucrose solution to the concentrations described above. The next day, bees from each group were randomly assigned to one of two treatments: […] of 1M sucrose solution or 17.81 μM deltamethrin (Dinastia Bayer). Thus, bees belonged to one of eight treatments: i) Sucrose water (Control), ii) Rutin (Rut), iii) Kaempferol (Kaemp), iv) Kaempferol+Rutin (Kaemp+Rut), v) Deltamethrin (Delta), vi) Rutin+Deltamethrin (Rut+Delta), vii) Kaempferol+Deltamethrin (Kaemp+Delta), viii) Kaempferol+Rutin+Deltamethrin ((Kaemp+Rut)+Delta). All solutions were diluted in 1M sugar water to the concentrations described above.
Sensory sensitivity was evaluated using responsiveness to sucrose, a proxy of resource exploitation by foragers. On the second day, bees of the eight treatments described above were tested five times for their response threshold (0 h, 1 h, 2 h, 3 h and 4 h). The first measure (0 h) was done prior to pesticide administration. Bees were tested with an ascending sucrose concentration of 0.1, 0.3, 1, 3, 10 and 30% (w/w). Between each concentration, the bees were presented with pure water as a control for potential sensitization or habituation (Pankiw et al., Behav Ecol Sociobiol (2000) 47:265-267). The inter-trial time between the presentation of each sucrose concentration was at least 4 minutes. For each presentation, the reflexive extension of the proboscis (tongue) of the bee, after antennal stimulation with the solution was recorded. After the last measure (4 h), bees were fed with 10 μL of 1M sucrose solution and maintained until the next day for a final test (24 hours after pesticide administration).
For each bee, a responsiveness score was determined (0-7) 0 h, 1 h, 2 h, 3 h, 4 h and 24 h, and a pooled scored (0-42). Normal distribution of the scores was tested using Shapiro-Wilk W Test for the null hypothesis that data is from a Normal distribution. […] Thus, non-parametric tests were used for comparisons across treatments and for multiple comparisons. Overall changes of responses across different concentrations were evaluated using repeated-measured MANOVA. Error associated with multiple comparisons was controlled using the Two-stage sharpened False Discovery Rate, and corrected p-values (q-values) are presented. Data were explored for outliers using a single run of Robust Fit outliers test. All analyses were conducted using JMP v.14 (SAS Institute Inc.)

[2] = tested on: bumblebee Bombus impatiens; experiment: Olfactory conditioning of PER in bumblebees: ad libitum rutin vs acute imidacloprid or fipronil; format: in vivo
Method: One colony of the bumblebee Bombus impatiens (Koppert Inc) was kept in laboratory conditions. Bees received pollen inside the nests and foraged to a 1M sugar-water feeder outside of the nest. Bees were collected while on the feeder and iced anesthetized to then be randomly assigned to one of two plastic containers where ad libitum self-administration of one of two solutions was allowed to 10 bees: i) 1 M sucrose water or ii) 1 μM Rutin (Sigma-Aldrich R5143) diluted in 1M sucrose water. On the night of the third day, the feeder was removed to starve the bees. On the fourth day, the bees were iced anesthetized and yolked restrained in plastic pipettes. Bees were maintained in the pipettes for the rest of the experiment (two days). One hour after harnessing, the bees were randomly assigned to one of three treatments: i) 20 μL of 1M sucrose water, ii) 20 μL of 1M sucrose water+5 nM imidacloprid, iii) 20 μL of 1M sucrose water+6 nM fipronil. Thus, overall bees belonged to one of six treatments:
Control: ad libitum sucrose water for three days and 20 μL of sucrose water before training
Rutin: ad libitum 1 μM Rutin for three days and 20 μL of sucrose water before training
Imid: ad libitum sucrose water for three days and 20 μL of 5 nM Imidacloprid in 1M sugar water 2 hours before training
Rutin+Imid: ad libitum 1 μM Rutin for three days and 20 μL of 5 nM Imidacloprid in 1M sugar water 2 hours before training
Fipronil: ad libitum sucrose water for three days and 20 μL of 5 nM fipronil in 1M sucrose water 2 hours before training
Rutin+Fipronil: ad libitum […] Rutin for three days and 20 μL of 6 nM fipronil in 1M sugar water 2 hours before training
(§2) All bees were blind-trained using olfactory conditioning of the proboscis extension response (PER). Briefly, bees were exposed to a presentation of 1-nonanol (Sigma-Aldrich) for 10 s. After 7 s of the onset of the odor presentation, the antenna was stimulated with 1.5 M sugar-water to elicit the PER. Following the PER, the bee was allowed to drink sugar-water for 3 s. Each paired presentation was considered a training trial and each individual received eleven training trials with an average intertrial interval of 10 minutes. After training, all bees were fed 20 μL of 1M sugar water and maintained in plastic boxes for 24 h until the retention test. […] Twenty-four hours after the last training trial the bees were presented with the conditioned odor for 10 s.
(§3) Learning for each individual was quantified as the number of conditioned PER responses across the trials. Thus, for each bee a learning score between zero and ten (0-10) was recorded.
(§4) Multiple comparisons were then run comparing learning score relative to Control bees using a non-parametric one or two-tailed Steel Method depending upon predictions. These comparisons informed us about the predicted impairment produced by the insecticides, the predicted innocuous effect of the flavonoid and the potential level of protection. Error due to multiple comparisons was controlled using the False Discovery Rate method (FDR-two stage sharpened method). In all cases corrected p-values (q-values) are presented.
(§5) Memory retention was quantified as a nominal variable (yes/no). Data were compared across treatments using a Chi-square test, followed by multiple comparisons of all treatments vs. Control. Error due to multiple comparisons was controlled using the FDR as indicated above. In all cases corrected p-values (q values) are presented.
Latency was quantified as a continuous variable between 0.5 s and 10 s. Data were compared across treatments using an ANOVA following a Log transformation to normalize the distribution (Shapiro-Wilk W Test after log transformation: p>0.05 for all treatments for the null hypothesis that data is from a normal distribution), followed by multiple comparisons between all treatments and the Control group. Error due to multiple comparisons was controlled using the FDR method as indicated above. […]

[3] = tested on: Honey bee foragers (Apis mellifera scutellata); experiment: Classical conditioning of PER in honey bees: rutin, kaempferol, p-coumaric acid vs fipronil; format: in vivo; conditions: for learning score relative to Control bees: score 0-10, 1 μM rutin, 131 μM kaempferol, 200 μM p-coumaric acid or Mix twice a day for three days, 228 nM fipronil 10 μL three hours before training; for latency of response relative to Control bees: Dunnett's method
Method: as §1, with “(five” for “(three”, “days). Food was provided twice a day in a volumen of 10 μL and varied in composition according to experimental treatments.” for “days).”
Bees were randomly allocated to one of the following treatments administered twice a day for three consecutive days (all concentrations are final):
Control: 1M sucrose water (10 μL)
Rut: 1 μM rutin (Sigma-Aldrich: R5143)-1M sugar water (10 μL)
Kaemp:131 μM kaempferol (Sigma-Aldrich:K0133)+1M sugar water (10 μL)
p-Cou A: 200 μM p-coumaric acid (Sigma-Aldrich:C9008) diluted in 1M sugar water (10 μL)
Mix: 1 μM rutin, 131 μM kaempferol and 200 μM p-Coumaric acid): Bees fed with composition diluted in 1M sugar water (10 μL) fed twice a day for three days
On the fourth day, bees were randomly assigned to one of two treatments three hours before training:
Fipronil: 10 μL of 228 nM Fipronil (Astuto Invesa) in 1M sucrose water
Sucrose solution: 10 μL 1M sucrose water
Thus, bees belong to one of ten treatments: Control, Kaemp, Rut, p-Cou A, Mix, Fipro, Kaemp+Fipro, Rut+Fipro, p-Cou A+Fipro, Mix+Fipro.
Bees were trained using classical conditioning of the proboscis extension response (PER). Briefly, bees received a soft current of clean air for 15 seconds to allow bees to accommodate. Then a soft current of 1-hexanol (Sigma-Aldrich: 471402) was injected for 10 seconds. Six seconds after injection of 1-hexanol, one of the antennae was stimulated with sugar water (1.5M), which leads to the reflexive extension of the proboscis, and the bee was allowed to drink for 4 seconds. Thus, the reward and the stimulus overlapped for four seconds. This sequence, recognized as a training trial, was repeated eleven times. Time was determined using a metronome (2 Hz). Memory retention was tested 24 hours after the eleven training trials. […] 12 bees were trained each session. Training was conducted by an experimenter blind to treatment.
as §3, §4, §5
Latency was quantified as a continuous variable between 0.5 s and 10 s. Data were compared across treatments using an ANOVA following a Log transformation to normalize the distribution (Shapiro-Wilk W Test after log transformation: p>0.05 for all treatments for the null hypothesis that data is from a normal distribution), followed by multiple comparisons between all treatments and the Control group (Dunnett's method). Error due to multiple comparisons was controlled using the FDR method as indicated above. In all cases corrected p-values (q-values) are presented.

[4] = tested on: bumblebee Bombus impatiens; experiment: Olfactory conditioning of PER in bumblebees: self-administered rutin vs chronic fipronil; format: in vivo
Method: One colony of the bumblebee Bombus impatiens (Koppert Inc) was kept in laboratory conditions. Bees received pollen inside the nests and foraged to a 1M sugar-water feeder outside of the nest. Bees were collected while on the feeder and iced anesthetized to then be randomly assigned to one of four plastic containers where self-administration of one of two solutions was allowed to 10 bees out of two feeders (glass vials with 500 μL of solution each): i) 1 M sucrose water or ii) 1 μM Rutin (Sigma-Aldrich R5143) diluted in 1M sucrose water. Feeders were refilled each day for three days. On the night of the third day, one of the vials was replaced by a new one with one of two solutions: i) 1 M sucrose water or ii) 1M sucrose water+6 nM fipronil. Feeders were refilled each day for three more days, thus providing a chronic exposure to fipronil. On the night of the […] day, bees were iced anesthetized and yolked restrained in plastic pipettes. Thus, bees belonged to one of four treatments:
Control: self-administered sucrose water for six days
Rut: self-administered rutin for six days
Fipro: self-administered sucrose water for three days followed by three days of self-administered sucrose water (one feeder) and fipronil (one feeder).
Rut+Fipro: self-administered rutin for three days followed by three days of self-administered rutin (one feeder) and fipronil (one feeder).
as §2, §3
as §4, with “fipronil,” for “insecticides,”, “rutin” for “flavonoid”
as §5
Latency was quantified as a continuous variable between 0.5 s and 10 s. […]

[5] = tested on: AChE; conditions: literature report; cited from earlier work
[6] = tested on: butyrylcholinesterase (BChE); conditions: literature report; cited from earlier work
[7] = bumblebees, 24 h retention test

CC1(C)[C@H](C(=O)O[C@H](C#N)c2cccc(Oc3ccccc3)c2)[C@@H]1C=C(Br)Br [Deltamethrin]
sensitivity 24 h after administration of the insecticide relative to Control bees ([1]; 24 h): lowest sensitivity
bees responding to 30% sucrose water ([1]; after 4 hours): less than 30%
improvement in response to 30% sucrose water ([1]; after 24 hours): 10%
bees responsive to 30% sucrose-water ([1]; after one hour): less than 40%
sensitivity (sucrose responsiveness, total PER score) relative to Control bees [1]: significantly lower

N#Cc1nn(-c2c(Cl)cc(C(F)(F)F)cc2Cl)c(N)c1[S+]([O-])C(F)(F)F (stereo not drawn) [Fipronil]
odds of remembering for Control bees relative to insecticide bees ([2]; 24 h retention): 3.4 times
proportion difference Control minus insecticide group for a PER response (Adjusted Wald test) ([2]; 24 h retention): 0.30
decision-making ratio (latency of response / learning score) relative to Control bees ([2]; bumblebees): significant increase
bees exhibiting a conditioned response after 24 h [2, 7]: 34.6%
learning score relative to Control bees ([2]; bumblebees, score 0-10, ad libitum 1 μM rutin three days, 5 nM imidacloprid or 6 nM fipronil 20 μL 2 hours before training): significantly lower
proportion difference Control minus treatment for a PER response (Adjusted Wald test) ([3]; 24 h retention): 0.545
bees exhibiting a conditioned response after 24 h ([3]; honey bees, 24 h retention test): None
learning score relative to Control bees ([3]; honey bees): significantly lower
odds of remembering for Control bees relative to Fipro bees ([4]; 24 h retention): 8.7 times
proportion difference Control-Fipro for a PER response (Adjusted Wald test) ([4]; 24 h retention): 0.48
bees exhibiting a conditioned response after 24 h [4, 7]: 33.3%
learning score relative to Control bees ([4]; bumblebees, score 0-10, self-administered 1 μM rutin six days, 6 nM fipronil feeder for the last three days (chronic)): significantly lower

O=c1c(O)c(-c2ccc(O)cc2)oc2cc(O)cc(O)c12 [Kaemp, Kaempferol]
sensitivity (sucrose responsiveness, total PER score) relative to Control bees [1]: not significantly affected
latency of response relative to Control bees [3]: not significantly different from Control
learning score relative to Control bees ([3]; honey bees): not significantly different from Control bees

C=CC(C)(C)c1c2c(c(O)c3c(=O)c4ccc(O)c(O)c4oc13)C=CC(C)(C)O2 [macluraxanthone]
inhibition of AChE [5]: concentration-dependent inhibition ability
inhibition of butyrylcholinesterase (BChE) [6]: concentration-dependent inhibition ability

O=C(O)/C=C/c1ccc(O)cc1 [p-CouA, p-coumaric acid]
latency of response relative to Control bees [3]: not significantly different from Control
learning score relative to Control bees ([3]; honey bees): not significantly different from Control bees
